{
  "source": "patent US9707265B2",
  "about": "“Treatment of muscular dystrophy” (The University of Sheffield, priority 2012, dated 2017)",
  "key": {"sapje zebrafish": {"tested_on": "sapje zebrafish", "assay": "Rescue of the dystrophic phenotype (muscle integrity, actin:GFP) in sapje zebrafish embryos", "assay_type": "in vivo", "settings": "sapje embryos treated from 24 hpf; actin:GFP as marker of muscle integrity", "experimental": "Zebrafish embryos were collected from group matings of heterozygous sapje ta222a (a dystrophin mutant) and homozygous for a transgene that labels all the fast muscle with GFP (actin:GFP;). At 24 hours post fertilization (hpf) embryos were dechorionated enzymatically, washed and arrayed into multiwell plates with 40 embryos per treatment (5 embryos per well). Sapje embryos are produced at normal Mendelian frequencies, so from 40 embryos we expect 10 homozygote for sapje. Compounds to be tested were added to a final concentration based on available clinical or mouse studies for EC50. All plates included negative controls. Live embryos were assayed for muscle degeneration using actin:GFP as a marker of muscle integrity in sapje fish. Fluorescent scans for GFP along the body axis of wildtype siblings or mutant fish reveal a dramatic profile of fluorescence intensity which clearly distinguished the normal muscle from damaged muscle."}, "β-dystroglycan [1]": {"tested_on": "β-dystroglycan", "assay": "Western blot analysis of β-dystroglycan and phosphorylated β-dystroglycan in sapje fish", "assay_type": "in vivo, zebrafish", "settings": "1 μM MG132, western blot", "experimental": "FIG. 16. Illustrates western blot analysis of β-dystroglycan (β-DG) and phosphorylated β-dystroglycan (p β-DG) in sapje fish (blue bars) and in sapje fish treated with 1 μM of the proteasomal inhibitor MG132 (purple bars)."}, "[2]": {"target": "T1, ubiquitin activating enzyme E1 (Homo sapiens, UniProt P22314)", "T1 sequence (P22314 1-1058)": "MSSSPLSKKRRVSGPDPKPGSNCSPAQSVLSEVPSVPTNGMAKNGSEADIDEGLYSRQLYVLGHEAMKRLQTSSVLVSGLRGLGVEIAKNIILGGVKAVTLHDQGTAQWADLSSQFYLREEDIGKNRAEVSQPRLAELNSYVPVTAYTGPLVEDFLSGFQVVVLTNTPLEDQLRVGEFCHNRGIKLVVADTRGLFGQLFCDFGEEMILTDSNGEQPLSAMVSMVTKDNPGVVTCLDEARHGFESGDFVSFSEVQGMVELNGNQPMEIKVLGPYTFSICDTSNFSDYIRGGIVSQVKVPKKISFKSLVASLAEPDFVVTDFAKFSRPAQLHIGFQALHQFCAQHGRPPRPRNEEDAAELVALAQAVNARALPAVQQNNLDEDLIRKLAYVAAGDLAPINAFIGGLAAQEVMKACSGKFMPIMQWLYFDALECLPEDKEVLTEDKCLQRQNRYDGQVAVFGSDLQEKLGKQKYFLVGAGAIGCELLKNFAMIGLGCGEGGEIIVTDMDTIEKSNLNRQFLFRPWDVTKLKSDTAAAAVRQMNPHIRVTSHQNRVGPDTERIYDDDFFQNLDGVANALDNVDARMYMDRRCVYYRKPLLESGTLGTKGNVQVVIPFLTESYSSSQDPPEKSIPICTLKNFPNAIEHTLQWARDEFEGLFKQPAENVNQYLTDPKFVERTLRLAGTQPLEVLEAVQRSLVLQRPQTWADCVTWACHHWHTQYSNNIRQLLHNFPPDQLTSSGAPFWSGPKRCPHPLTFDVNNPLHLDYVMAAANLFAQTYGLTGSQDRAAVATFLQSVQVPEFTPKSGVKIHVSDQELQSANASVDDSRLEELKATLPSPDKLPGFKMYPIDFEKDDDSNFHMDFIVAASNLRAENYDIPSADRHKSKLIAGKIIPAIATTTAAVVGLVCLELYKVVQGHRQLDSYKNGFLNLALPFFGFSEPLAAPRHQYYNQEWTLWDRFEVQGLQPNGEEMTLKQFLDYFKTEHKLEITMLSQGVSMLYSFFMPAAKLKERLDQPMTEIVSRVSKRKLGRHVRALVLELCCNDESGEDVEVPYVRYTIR", "settings": "reference 51; cited from earlier work"}, "mdx mouse": {"tested_on": "mdx mouse", "settings": "Gazzerro et al. 2010; cited from earlier work"}, "β-dystroglycan [3]": {"tested_on": "β-dystroglycan", "assay": "β-dystroglycan ubiquitination after protein tyrosine phosphatase inhibition in myoblast cells expressing HA-tagged ubiquitin", "assay_type": "cell-based", "settings": "immunoprecipitation and western blot", "from_the_text": "Tyrosine phosphatases were inhibited in myoblast cells in vitro using peroxyvanadate and samples from cells expressing HA-tagged ubiquitin were taken for immunoprecipitation and western blot analysis. Immunoprecipitation with either the HA tag, or β-dystroglycan at various time points was followed by Western blotting for the HA epitope, β-dystroglycan or tubulin as a loading control."}},
  "note": "Entries after “also recorded” stand apart in the source; their conditions may differ. Where a SMILES comes first, the peptide text is derived from it. The star is where a group is joined. Cbz = O=C(OCc1ccccc1)*",
  "data": [
    {"molecule": "CC(C)C[C@H](NC(=O)[C@H](CCc1ccccc1)NC(=O)CN1CCOCC1)C(=O)N[C@@H](Cc1ccccc1)C(=O)N[C@@H](CC(C)C)C(=O)[C@@]1(C)CO1", "note": "[Carfilzomib]", "values": [
      {"measurement": "effect on the dystrophic phenotype of sapje zebrafish", "setting": "sapje zebrafish", "value": "dose dependent rescue"}
    ]},
    {"molecule": "CC(C)C[C@@H](C=O)NC(=O)[C@H](CC(C)C)NC(=O)[C@H](CC(C)C)NC(=O)OCc1ccccc1", "note": "[MG132] (Cbz-Leu-Leu-Leu-aldehyde)", "values": [
      {"measurement": "effect on the dystrophic phenotype of sapje zebrafish", "setting": "sapje zebrafish", "value": "dose dependent rescue"},
      {"measurement": "amount of non-phosphorylated b-dystroglycan in treated sapje fish", "setting": "β-dystroglycan [1]", "value": "significant increase"},
      {"measurement": "amount of phosphorylated b-dystroglycan in treated sapje fish", "setting": "β-dystroglycan [1]", "value": "significant increase"}
    ]},
    {"molecule": "CCOC(=O)c1ccc(N2NC(=O)/C(=C/c3ccc([N+](=O)[O-])o3)C2=O)cc1", "note": "[Pyr-41]", "values": [
      {"measurement": "effect on the dystrophic phenotype of sapje zebrafish", "setting": "sapje zebrafish", "value": "small but positive benefit; also recorded: dose dependent rescue"},
      {"measurement": "inhibition of ubiquitin activating enzyme E1", "setting": "[2]", "value": "inhibit the ubiquitin activating enzyme E1"}
    ]},
    {"molecule": "CC(C)C[C@H](NC(=O)[C@H](Cc1ccccc1)NC(=O)c1cnccn1)B(O)O", "note": "[bortezomib]", "values": [
      {"measurement": "effect on the dystrophic phenotype of sapje zebrafish", "setting": "sapje zebrafish", "value": "Qualitatively similar results; also recorded: dose dependent rescue"},
      {"measurement": "restoration of DGC components", "setting": "mdx mouse", "value": "restore DGC components"}
    ]},
    {"molecule": "peroxyvanadate", "values": [
      {"measurement": "ubiquitin-β-dystroglycan bands over time course of treatment", "setting": "β-dystroglycan [3]", "value": "increase in the proportion and number of ubiquitin-β-dystroglycan bands"}
    ]}
  ]
}
